Columns and labels:
CHO = assay: Antiproliferative activity against CHO cells assessed as reduction in cell proliferation by MTT assay; assay type: functional, cell-based; conditions: Cricetulus griseus
[1] = molecular target: Cyclin-dependent kinase 2 (Homo sapiens, UniProt P24941); assay: Inhibition of CDK-2 (unknown origin)

IC50 [1]: > 250000 nM
Structure (SMILES): Nc1nonc1-n1nnc(-c2nnc(-c3ccncc3)[nH]2)c1CN1CCCCC1
EC50 (CHO): 1850 nM

From ChEMBL document CHEMBL5236544, “Furazans in Medicinal Chemistry” (J Med Chem, 2021)
